From publication PMC5218480 (PLoS ONE, 2017)

System: MV-4-11 cells
Test: Gene expression microarray analysis (Affymetrix PrimeView) and GSEA
Type: cell-based, human
Set-up: RFU PODN (11730768_x_at) / Fold change /veh PODN (11730768_x_at) / RFU LINC00158 (11744669_a_at) / Fold change /veh LINC00158 (11744669_a_at) / RFU DUSP10 (11751237_a_at) / Fold change /veh DUSP10 (11751237_a_at) / RFU ID3 (11757404_x_at) / Fold change /veh ID3 (11757404_x_at) / RFU PLEKHG5 (11737974_s_at) / Fold change /veh PLEKHG5 (11737974_s_at) / RFU LRRC4B (11730491_at) / Fold change /veh LRRC4B (11730491_at) / RFU GIMAP4 (11747438_a_at) / Fold change /veh GIMAP4 (11747438_a_at) / RFU KRT8 (11758183_x_at) / Fold change /veh KRT8 (11758183_x_at) / RFU CNN1 (11734310_a_at) / Fold change /veh CNN1 (11734310_a_at) / RFU VPS37D (11726825_at) / Fold change /veh VPS37D (11726825_at) / RFU C10orf10 (11716522_x_at) / Fold change /veh C10orf10 (11716522_x_at) / RFU KIR2DL2 /// KIR2DL4 /// KIR2DL5A /// KIR2DL5B /// KIR2DS1 /// KIR2DS2 /// KIR2DS3 /// KIR2DS4 /// KIR3DL3 /// KIR3DL3 /// KIR3DS1 (11738374_at) / Fold change /veh KIR2DL2 /// KIR2DL4 /// KIR2DL5A /// KIR2DL5B /// KIR2DS1 /// KIR2DS2 /// KIR2DS3 /// KIR2DS4 /// KIR3DL3 /// KIR3DL3 /// KIR3DS1 (11738374_at) / RFU C1QL1 (11718748_at) / Fold change /veh C1QL1 (11718748_at) / RFU TMPRSS4 (11747572_a_at) / Fold change /veh TMPRSS4 (11747572_a_at) / RFU HAMP (11756126_x_at) / Fold change /veh HAMP (11756126_x_at) / RFU RNFT2 (11725882_a_at) / Fold change /veh RNFT2 (11725882_a_at) / RFU NR4A2 (11747474_a_at) / Fold change /veh NR4A2 (11747474_a_at) / RFU ABCC12 (11746883_a_at) / Fold change /veh ABCC12 (11746883_a_at) / RFU TMEM136 (11760407_x_at) / Fold change /veh TMEM136 (11760407_x_at) / RFU CLDN22 /// WWC2 (11732394_at) / Fold change /veh CLDN22 /// WWC2 (11732394_at) / RFU HLA-DPB1 (11760878_x_at) / Fold change /veh HLA-DPB1 (11760878_x_at) / RFU SPINT1 (11716480_a_at) / Fold change /veh SPINT1 (11716480_a_at) / RFU GAP43 (11754022_s_at) / Fold change /veh GAP43 (11754022_s_at) / RFU A4GNT (11735810_at) / Fold change /veh A4GNT (11735810_at) / RFU PRB3 (11715151_x_at) / Fold change /veh PRB3 (11715151_x_at) / RFU TUBB4B (11761932_at) / Fold change /veh TUBB4B (11761932_at) / RFU CAPN14 (11732068_a_at) / Fold change /veh CAPN14 (11732068_a_at) / RFU TMCC2 (11721928_a_at) / Fold change /veh TMCC2 (11721928_a_at) / RFU IRGQ (11745062_a_at) / Fold change /veh IRGQ (11745062_a_at) / RFU FAM174B (11720279_a_at) / Fold change /veh FAM174B (11720279_a_at) / RFU TMPRSS4 (11748680_a_at) / Fold change /veh TMPRSS4 (11748680_a_at) / RFU FAM212B (11763350_a_at) / Fold change /veh FAM212B (11763350_a_at) / RFU PLEKHG5 (11743358_a_at) / Fold change /veh PLEKHG5 (11743358_a_at) / RFU ZSCAN30 (11745921_a_at) / Fold change /veh ZSCAN30 (11745921_a_at) / RFU CMKLR1 (11741424_a_at) / Fold change /veh CMKLR1 (11741424_a_at) / RFU LOC101060620 /// MAPK8IP1 (11723275_at) / Fold change /veh LOC101060620 /// MAPK8IP1 (11723275_at) / RFU SPTSSB (11747773_x_at) / Fold change /veh SPTSSB (11747773_x_at) / RFU PRSS12 (11739890_at) / Fold change /veh PRSS12 (11739890_at) / RFU BIN1 (11741810_x_at) / Fold change /veh BIN1 (11741810_x_at) / RFU WNT11 (11732464_a_at) / Fold change /veh WNT11 (11732464_a_at) / RFU C10orf10 (11716521_a_at) / Fold change /veh C10orf10 (11716521_a_at) / RFU C5orf56 (11738089_at) / Fold change /veh C5orf56 (11738089_at) / RFU CYB561 (11721691_x_at) / Fold change /veh CYB561 (11721691_x_at) / RFU ANKRD19P (11752326_a_at) / Fold change /veh ANKRD19P (11752326_a_at) / RFU OR2T12 /// OR2T33 /// OR2T8 (11738714_s_at) / Fold change /veh OR2T12 /// OR2T33 /// OR2T8 (11738714_s_at) / RFU VCAN (11748164_a_at) / Fold change /veh VCAN (11748164_a_at) / RFU JSRP1 (11732532_at) / Fold change /veh JSRP1 (11732532_at) / RFU KRTAP10-11 (11738290_x_at) / Fold change /veh KRTAP10-11 (11738290_x_at) / RFU MYO3A (11730013_a_at) / Fold change /veh MYO3A (11730013_a_at) / RFU EBF3 (11725865_a_at) / Fold change /veh EBF3 (11725865_a_at) / RFU CAMK2N1 (11719241_x_at) / Fold change /veh CAMK2N1 (11719241_x_at) / RFU C5orf56 (11738088_a_at) / Fold change /veh C5orf56 (11738088_a_at) / RFU OLFML3 (11715873_a_at) / Fold change /veh OLFML3 (11715873_a_at) / RFU LOC100653217 /// NTM (11731650_a_at) / Fold change /veh LOC100653217 /// NTM (11731650_a_at) / RFU MAPK11 (11762145_a_at) / Fold change /veh MAPK11 (11762145_a_at) / RFU FIZ1 (11724087_x_at) / Fold change /veh FIZ1 (11724087_x_at) / RFU OASL (11726364_x_at) / Fold change /veh OASL (11726364_x_at) / RFU SOX15 (11748057_x_at) / Fold change /veh SOX15 (11748057_x_at) / RFU CD79A (11719716_a_at) / Fold change /veh CD79A (11719716_a_at) / RFU HIST1H1D (11736915_at) / Fold change /veh HIST1H1D (11736915_at) / RFU CASKIN2 (11723855_a_at) / Fold change /veh CASKIN2 (11723855_a_at) / RFU LOC730098 (11760151_x_at) / Fold change /veh LOC730098 (11760151_x_at) / RFU OR4N2 (11742367_at) / Fold change /veh OR4N2 (11742367_at) / RFU PRRT2 (11749266_a_at) / Fold change /veh PRRT2 (11749266_a_at) / RFU SNX32 (11753110_a_at) / Fold change /veh SNX32 (11753110_a_at) / RFU CDHR5 (11726645_a_at) / Fold change /veh CDHR5 (11726645_a_at) / RFU RCAN1 (11760418_a_at) / Fold change /veh RCAN1 (11760418_a_at) / RFU FAM167A (11723789_a_at) / Fold change /veh FAM167A (11723789_a_at) / RFU FAM26E (11764081_at) / Fold change /veh FAM26E (11764081_at) / RFU ISYNA1 (11749810_s_at) / Fold change /veh ISYNA1 (11749810_s_at) / RFU ACY1 (11761880_at) / Fold change /veh ACY1 (11761880_at) / RFU 11764098_at / Fold change /veh 11764098_at / RFU SAMD14 (11745864_x_at) / Fold change /veh SAMD14 (11745864_x_at) / RFU NPB (11741838_a_at) / Fold change /veh NPB (11741838_a_at) / RFU TMPRSS6 (11731388_a_at) / Fold change /veh TMPRSS6 (11731388_a_at) / RFU KRTAP10-2 (11738614_at) / Fold change /veh KRTAP10-2 (11738614_at) / RFU ARHGAP8 /// PRR5-ARHGAP8 (11727945_x_at) / Fold change /veh ARHGAP8 /// PRR5-ARHGAP8 (11727945_x_at) / RFU KRTAP5-7 /// NADSYN1 (11734609_at) / Fold change /veh KRTAP5-7 /// NADSYN1 (11734609_at) / RFU RASL12 (11751679_a_at) / Fold change /veh RASL12 (11751679_a_at) / RFU CDKN2B (11736163_a_at) / Fold change /veh CDKN2B (11736163_a_at) / RFU PRF1 (11729649_at) / Fold change /veh PRF1 (11729649_at) / RFU, ZNF638 /// ZNF638-IT1 / Fold change vs veh, ZNF638 /// ZNF638-IT1 / RFU, PANK3 / Fold change vs veh, PANK3 / RFU, SH3YL1 / Fold change vs veh, SH3YL1 / RFU, ZEB2 / Fold change vs veh, ZEB2 / RFU, NRIP1 / Fold change vs veh, NRIP1 / RFU, PTTG1IP / Fold change vs veh, PTTG1IP / RFU, CAPN2 / Fold change vs veh, CAPN2 / RFU, MED14 / Fold change vs veh, MED14 / RFU, SNORA58 / Fold change vs veh, SNORA58 / RFU, C1orf63 / Fold change vs veh, C1orf63 / RFU, LRRFIP1 / Fold change vs veh, LRRFIP1 / RFU, NDUFAF7 / Fold change vs veh, NDUFAF7 / RFU, SLC12A2 / Fold change vs veh, SLC12A2 / RFU, IBTK / Fold change vs veh, IBTK / RFU, ESF1 / Fold change vs veh, ESF1 / Fold change vs veh, TMEM50B / RFU, TAOK1 / Fold change vs veh, TAOK1 / RFU, ACBD3 / Fold change vs veh, ACBD3 / RFU, TMA16 / Fold change vs veh, TMA16 / RFU, RWDD3 / Fold change vs veh, RWDD3 / RFU, BCAT1 / Fold change vs veh, BCAT1 / RFU, EDEM3 / Fold change vs veh, EDEM3 / RFU, TMEM33 / Fold change vs veh, TMEM33 / RFU, WDR75 / Fold change vs veh, WDR75 / RFU, AHCTF1 / Fold change vs veh, AHCTF1 / RFU, TFRC / Fold change vs veh, TFRC / RFU, ZDHHC17 / Fold change vs veh, ZDHHC17 / RFU, NOM1 / Fold change vs veh, NOM1 / RFU, ARL8B / Fold change vs veh, ARL8B / RFU, ZBTB11 / Fold change vs veh, ZBTB11 / RFU, TAMM41 / Fold change vs veh, TAMM41 / RFU, KIAA1704 /// LOC100996395 / Fold change vs veh, KIAA1704 /// LOC100996395 / RFU, ING1 / Fold change vs veh, ING1 / RFU, TRMT61B / Fold change vs veh, TRMT61B / RFU, FUBP3 / Fold change vs veh, FUBP3 / RFU, TP53 / Fold change vs veh, TP53 / RFU, TNKS2 / Fold change vs veh, TNKS2 / RFU, ZFP14 / Fold change vs veh, ZFP14 / RFU, ACTR2 / Fold change vs veh, ACTR2 / RFU, PPP3R1 / Fold change vs veh, PPP3R1 / RFU, PIK3R1 / Fold change vs veh, PIK3R1 / RFU, HNRNPA1 / Fold change vs veh, HNRNPA1 / RFU, RNF170 / Fold change vs veh, RNF170 / RFU, ZNF28 / Fold change vs veh, ZNF28 / RFU, RNGTT / Fold change vs veh, RNGTT / RFU, OGT / Fold change vs veh, OGT / RFU, BRD1 / Fold change vs veh, BRD1 / RFU, MARS / Fold change vs veh, MARS / RFU, ZNF655 / Fold change vs veh, ZNF655 / RFU, FAHD1 / Fold change vs veh, FAHD1 / RFU, BDP1 / Fold change vs veh, BDP1 / RFU, LRRCC1 / Fold change vs veh, LRRCC1 / RFU, ARID1A / Fold change vs veh, ARID1A / RFU, ZNF146 / Fold change vs veh, ZNF146 / RFU, ZNF330 / Fold change vs veh, ZNF330 / RFU, GPN3 / Fold change vs veh, GPN3 / RFU, C9orf123 / Fold change vs veh, C9orf123 / RFU, N4BP2L2 / Fold change vs veh, N4BP2L2 / RFU, ARFIP1 / Fold change vs veh, ARFIP1 / RFU, FAM179B / Fold change vs veh, FAM179B / RFU, BCL10 / Fold change vs veh, BCL10 / RFU, UHRF1BP1L / Fold change vs veh, UHRF1BP1L / RFU, BET1 / Fold change vs veh, BET1 / RFU, CNOT2 / Fold change vs veh, CNOT2 / RFU, ZNF268 / Fold change vs veh, ZNF268 / Fold change vs veh, ZNF507 / RFU, DGCR2 / Fold change vs veh, DGCR2 / RFU, WDSUB1 / Fold change vs veh, WDSUB1 / Fold change vs veh, HSP90B1 /// MIR3652 / RFU, ADSS / Fold change vs veh, ADSS / RFU, GK / Fold change vs veh, GK / RFU, ZNF148 / Fold change vs veh, ZNF148 / RFU, TAF9 / Fold change vs veh, TAF9 / RFU, SLC1A5 / Fold change vs veh, SLC1A5 / RFU, SLMO2 / Fold change vs veh, SLMO2 / RFU, ABCC4 / Fold change vs veh, ABCC4 / RFU, LOC101060439 /// RAP1B / Fold change vs veh, LOC101060439 /// RAP1B / RFU, RFX7 / Fold change vs veh, RFX7 / RFU, GTPBP10 / Fold change vs veh, GTPBP10 / RFU, CNEP1R1 / Fold change vs veh, CNEP1R1 / RFU, BIVM-ERCC5 /// ERCC5 / Fold change vs veh, BIVM-ERCC5 /// ERCC5 / RFU, ILF3 / Fold change vs veh, ILF3 / RFU 11762660_at / Fold change /veh 11762660_at / RFU VCAN (11757783_s_at) / Fold change /veh VCAN (11757783_s_at) / RFU DDX43 (11728927_at) / Fold change /veh DDX43 (11728927_at) / RFU KRT8 (11758188_x_at) / Fold change /veh KRT8 (11758188_x_at) / RFU NKD1 (11759106_at) / Fold change /veh NKD1 (11759106_at) / RFU SRD5A1 (11742802_a_at) / Fold change /veh SRD5A1 (11742802_a_at) / RFU TPSAB1 /// TPSB2 (11721975_s_at) / Fold change /veh TPSAB1 /// TPSB2 (11721975_s_at) / RFU GSTM3 (11746129_a_at) / Fold change /veh GSTM3 (11746129_a_at) / RFU IL23R (11737362_x_at) / Fold change /veh IL23R (11737362_x_at) / RFU TMEM51 (11727254_a_at) / Fold change /veh TMEM51 (11727254_a_at) / RFU PIWIL2 (11732686_x_at) / Fold change /veh PIWIL2 (11732686_x_at) / RFU ORM1 (11744905_x_at) / Fold change /veh ORM1 (11744905_x_at) / RFU CCDC152 (11743942_at) / Fold change /veh CCDC152 (11743942_at) / RFU ECM1 (11717891_a_at) / Fold change /veh ECM1 (11717891_a_at) / RFU IL23R (11748794_a_at) / Fold change /veh IL23R (11748794_a_at) / RFU TNFAIP8L3 (11732012_x_at) / Fold change /veh TNFAIP8L3 (11732012_x_at) / RFU MBOAT4 (11741988_at) / Fold change /veh MBOAT4 (11741988_at) / RFU 11764193_at / Fold change /veh 11764193_at / RFU TMEM53 (11763286_at) / Fold change /veh TMEM53 (11763286_at) / RFU MAGEB2 (11727129_at) / Fold change /veh MAGEB2 (11727129_at) / RFU TMEM200A (11744735_a_at) / Fold change /veh TMEM200A (11744735_a_at) / RFU CCDC152 (11751479_a_at) / Fold change /veh CCDC152 (11751479_a_at) / RFU FAM211A (11726209_a_at) / Fold change /veh FAM211A (11726209_a_at) / RFU RGS16 (11746705_a_at) / Fold change /veh RGS16 (11746705_a_at) / RFU VCAN (11755009_s_at) / Fold change /veh VCAN (11755009_s_at) / RFU RHOB (11743442_s_at) / Fold change /veh RHOB (11743442_s_at) / RFU RGS16 (11720943_a_at) / Fold change /veh RGS16 (11720943_a_at) / RFU RGS16 (11720944_at) / Fold change /veh RGS16 (11720944_at) / RFU, VPS4B / Fold change vs veh, VPS4B / RFU, CREB1 / Fold change vs veh, CREB1 / RFU, DNAJC13 / Fold change vs veh, DNAJC13 / RFU, GNAQ / Fold change vs veh, GNAQ / RFU, CDK5R1 / Fold change vs veh, CDK5R1 / RFU, ZRANB3 / Fold change vs veh, ZRANB3 / RFU, CUL4A / Fold change vs veh, CUL4A / RFU, CCNY / Fold change vs veh, CCNY / RFU, UFL1 / Fold change vs veh, UFL1 / RFU, COG3 / Fold change vs veh, COG3 / RFU, DIAPH2 / Fold change vs veh, DIAPH2 / RFU, SKA2 / Fold change vs veh, SKA2 / RFU, AFF3 / Fold change vs veh, AFF3 / RFU, LMF1 / Fold change vs veh, LMF1 / RFU, IPO11 / Fold change vs veh, IPO11 / RFU, DFFB / Fold change vs veh, DFFB / RFU, FOXP1 / Fold change vs veh, FOXP1 / RFU, CARD8 / Fold change vs veh, CARD8 / RFU, STRN3 / Fold change vs veh, STRN3 / RFU, ADK / Fold change vs veh, ADK / RFU, RASSF2 / Fold change vs veh, RASSF2 / RFU, WIPF1 / Fold change vs veh, WIPF1 / RFU, LARP1B / Fold change vs veh, LARP1B / RFU, RASA1 / Fold change vs veh, RASA1 / RFU, RB1 / Fold change vs veh, RB1 / RFU, PPFIA1 / Fold change vs veh, PPFIA1 / RFU, MAT2A / Fold change vs veh, MAT2A / RFU, CCT5 / Fold change vs veh, CCT5 / RFU, WDR92 / Fold change vs veh, WDR92 / RFU, CUX1 / Fold change vs veh, CUX1 / RFU, TTC7A / Fold change vs veh, TTC7A / RFU, TMEM135 / Fold change vs veh, TMEM135 / RFU, DEPTOR / Fold change vs veh, DEPTOR / RFU, CPM / Fold change vs veh, CPM / RFU, DNAJB6 / Fold change vs veh, DNAJB6 / RFU, CACNA2D3 / Fold change vs veh, CACNA2D3 / RFU, DTX4 / Fold change vs veh, DTX4 / RFU, TFCP2 / Fold change vs veh, TFCP2 / RFU, GMCL1 /// GMCL1P1 / Fold change vs veh, GMCL1 /// GMCL1P1 / RFU, AEBP2 / Fold change vs veh, AEBP2 / RFU, SNHG1 /// SNORD22 /// SNORD25 /// SNORD26 /// SNORD27 /// SNORD28 /// SNORD29 /// SNORD31 / Fold change vs veh, SNHG1 /// SNORD22 /// SNORD25 /// SNORD26 /// SNORD27 /// SNORD28 /// SNORD29 /// SNORD31 / Fold change (Aza/veh), C12orf56 (ProbeSet 11735607_a_at) / Fold change (ACY-1035/veh), C12orf56 (ProbeSet 11735607_a_at) / Fold change (Aza/veh), FGFR1OP (ProbeSet 11751329_s_at) / Fold change (ACY-1035/veh), FGFR1OP (ProbeSet 11751329_s_at) / Fold change (Aza/veh), VPS36 (ProbeSet 11739960_a_at) / Fold change (ACY-1035/veh), VPS36 (ProbeSet 11739960_a_at) / RFU SYPL1 (11715823_x_at) / Fold change /veh SYPL1 (11715823_x_at) / RFU IGFBP7 (11715501_s_at) / Fold change /veh IGFBP7 (11715501_s_at) / RFU REEP3 (11722064_at) / Fold change /veh REEP3 (11722064_at) / RFU IGLL1 (11728026_x_at) / Fold change /veh IGLL1 (11728026_x_at): dose or concentration left out as unconfirmed
Settings: ProbeSet 11725100_s_at; LIST B

With `Nc1ncn([C@@H]2O[C@H](CO)[C@@H](O)[C@H]2O)c(=O)n1` [azacitidine] the “Fold change vs veh, ESF1” value was 0.96.
